Reference: ChEMBL document CHEMBL5346977, “Discovery of Novel d-(+)-Biotin-Conjugated Resorcinol Dibenzyl Ether-Based PD-L1 Inhibitors for Targeted Cancer Immunotherapy” (J Med Chem, 2023)
Activity calls are given as the source filed them. The rule behind the calls is not given here.

How the values were obtained:
[1] = target: T1, Programmed cell death protein 1/Programmed cell death 1 ligand 1 (Homo sapiens) (UniProt Q15116+Q9NZQ7); assay: Inhibition of GST-tagged PD-1 (unknown origin)/His-tagged PD-L1 (unknown origin) interaction at 10 uM by HTRF binding assay; format: protein-complex assay
[2] = target: Programmed cell death 1 ligand 1 (Homo sapiens, UniProt Q9NZQ7); assay: Binding affinity to human PD-L1 at 20 uM by SPR analysis
[3] = target: Programmed cell death 1 ligand 1 (Mus musculus) (UniProt Q9EP73); assay: Binding affinity to mouse PD-L1 at 20 uM by SPR analysis
[4] = target: T1, Programmed cell death protein 1/Programmed cell death 1 ligand 1 (Homo sapiens); assay: Inhibition of GST-tagged PD-1 (unknown origin)/His-tagged PD-L1 (unknown origin) interaction at 10 nM by HTRF binding assay relative to control; format: protein-complex assay
[5] = target: T1, Programmed cell death protein 1/Programmed cell death 1 ligand 1 (Homo sapiens); assay: Inhibition of GST-tagged PD-1 (unknown origin)/His-tagged PD-L1 (unknown origin) interaction at 100 nM by HTRF binding assay relative to control; format: protein-complex assay
[6] = target: T2, Programmed cell death protein 1/Programmed cell death 1 ligand 1 (Homo sapiens, UniProt Q9NZQ7); assay: Inhibition of GST-tagged PD-1 (unknown origin)/His-tagged PD-L1 (unknown origin) interaction by HTRF binding assay relative to control; format: protein-complex assay
HepG2 = assay: Antitumor immunity activity against human HepG2 cells expressing human PD-L1 co-cultured with human Jurkat T cells expressing human PD-1 assessed as reduction in cell viability at 10 uM incubated for 48 hrs by CCK8 assay relative to control; format: functional
[7] = target: T2, Programmed cell death protein 1/Programmed cell death 1 ligand 1; assay: Inhibition of interaction of PD-1 (unknown origin) expressed in Jurkat T cells carrying luciferase reporter under the control of NFAT promoter/PD-L1 (unknown origin) expressed in CHO cells co-expressing TCR ligand and T-cell surrogate pretreated with CHO cells for 0.5 hrs followed by Jurkat T cell addition and measured after 5 hrs by luminescence based analysis
[8] = AUC (0 to t) in Sprague-Dawley rat at 1 mg/kg, iv administered as single dose and measured after 48 hrs by HPLC-MS/MS analysis; format: ADME, organism-based; set-up: dose 1 mg/kg, time 48 hrs, route iv; conditions: in vivo
[9] = AUC (0 to infinity) in Sprague-Dawley rat at 1 mg/kg, iv administered as single dose and measured after 48 hrs by HPLC-MS/MS analysis; format: ADME, organism-based; set-up: dose 1 mg/kg, time 48 hrs, route iv; conditions: in vivo
[10] = MRT (0 to t) in Sprague-Dawley rat at 1 mg/kg, iv administered as single dose and measured after 48 hrs by HPLC-MS/MS analysis; format: ADME, organism-based; conditions: in vivo
[11] = MRT (0 to infinity) in Sprague-Dawley rat at 1 mg/kg, iv administered as single dose and measured after 48 hrs by HPLC-MS/MS analysis; format: ADME, organism-based; conditions: in vivo
[12] = Half-life in Sprague-Dawley rat at 1 mg/kg, iv administered as single dose and measured after 48 hrs by HPLC-MS/MS analysis; format: ADME, organism-based; conditions: in vivo
[13] = Tmax in Sprague-Dawley rat at 1 mg/kg, iv administered as single dose and measured after 48 hrs by HPLC-MS/MS analysis; format: ADME, organism-based; conditions: in vivo
[14] = Clearance in Sprague-Dawley rat at 1 mg/kg, iv administered as single dose and measured after 48 hrs by HPLC-MS/MS analysis; format: ADME, organism-based; conditions: in vivo
[15] = Apparent volume of distribution in Sprague-Dawley rat at 1 mg/kg, iv administered as single dose and measured after 48 hrs by HPLC-MS/MS analysis; format: ADME, organism-based; conditions: in vivo, read-out: Vz
[16] = Initial drug concentration in Sprague-Dawley rat at 1 mg/kg, iv administered as single dose and measured after 48 hrs by HPLC-MS/MS analysis; format: ADME, organism-based; conditions: in vivo
B16-F10 [17] = assay: Antitumor activity against mouse B16-F10 cells implanted in BALB/c mouse assessed as reduction in tumor growth inhibition at 50 mg/kg, ip administered once daily for 14 days relative to control; format: functional; conditions: B16-F10, 336 h, time 14 day, read-out: TGI
B16-F10 [18] = assay: Antitumor immunity against mouse B16-F10 cells implanted in allogenic BALB/c mouse assessed as increase in CD3+ T cells at 50 mg/kg, ip by flow cytometric analysis (reference value: 2.51%); format: functional
[19] = Toxicity in allogenic BALB/c mouse implanted with mouse B16-F10 cells assessed as severe crypt necrosis in colon at 50 mg/kg, ip by H&E staining based analysis; format: organism-based; conditions: in vivo
[20] = Toxicity in allogenic BALB/c mouse implanted with mouse B16-F10 cells assessed as inflammatory cell infiltration in colon at 50 mg/kg, ip by H&E staining based analysis; format: organism-based; conditions: in vivo

T2 sequence (Q15116 whole entry): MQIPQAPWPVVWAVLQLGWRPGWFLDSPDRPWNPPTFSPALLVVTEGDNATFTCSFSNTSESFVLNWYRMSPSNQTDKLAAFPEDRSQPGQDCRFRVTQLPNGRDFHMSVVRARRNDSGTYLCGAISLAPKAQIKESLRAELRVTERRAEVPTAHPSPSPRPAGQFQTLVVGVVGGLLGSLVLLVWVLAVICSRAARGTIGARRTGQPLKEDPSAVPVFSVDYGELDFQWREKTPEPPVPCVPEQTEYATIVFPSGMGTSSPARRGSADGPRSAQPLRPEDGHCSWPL
T2 sequence (Q9NZQ7 whole entry): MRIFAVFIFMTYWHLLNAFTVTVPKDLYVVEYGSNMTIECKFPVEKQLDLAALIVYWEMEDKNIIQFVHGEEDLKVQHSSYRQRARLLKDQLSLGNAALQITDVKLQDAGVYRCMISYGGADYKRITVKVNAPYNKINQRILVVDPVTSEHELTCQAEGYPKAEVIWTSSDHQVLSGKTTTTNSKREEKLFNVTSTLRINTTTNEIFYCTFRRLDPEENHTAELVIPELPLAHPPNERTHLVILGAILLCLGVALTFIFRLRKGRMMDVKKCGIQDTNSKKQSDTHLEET
Programmed cell death 1 ligand 1, sequence (Q9NZQ7 whole entry): as above
Programmed cell death 1 ligand 1 (Mus musculus), sequence (Q9EP73 whole entry): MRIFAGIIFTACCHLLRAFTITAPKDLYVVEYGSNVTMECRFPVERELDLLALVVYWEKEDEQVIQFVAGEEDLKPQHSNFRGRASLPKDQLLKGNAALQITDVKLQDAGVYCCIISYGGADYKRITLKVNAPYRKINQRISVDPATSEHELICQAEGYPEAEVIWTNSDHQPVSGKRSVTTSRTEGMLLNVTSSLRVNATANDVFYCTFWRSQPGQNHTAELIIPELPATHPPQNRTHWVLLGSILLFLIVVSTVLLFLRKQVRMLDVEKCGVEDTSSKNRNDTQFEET

Row | Compound | inhibition [4] | inhibition [5] | also measured
1 | O=C(O)CCCC[C@@H]1SC[C@@H]2NC(=O)N[C@@H]21 | – | – | inhibition [1]: inactive; Activity [2]: inactive; Activity [3]: inactive
2 | Cc1c(COc2cc(OCc3cccc(C#N)c3)c(CN3CCCCC3C(=O)NC3CCN(C(=O)CCCC[C@@H]4SC[C@@H]5NC(=O)N[C@@H]54)CC3)cc2Cl)cccc1-c1ccccc1 (stereo partly specified) | 29.1% | 99.2% | IC50 [6]: 11.6 nM
3 | Cc1c(COc2cc(OCc3cccc(C#N)c3)c(CNC(C)(C)C(=O)NC3CCN(C(=O)CCCC[C@H]4SC[C@H]5NC(=O)N[C@H]54)CC3)cc2Cl)cccc1-c1ccc2c(c1)OCCO2 | 3.7% | 50.1% | –
4 | Cc1c(COc2cc(OCc3cccc(C#N)c3)c(CN3CCCCC3C(=O)NCCCNC(=O)CCCC[C@@H]3SC[C@@H]4NC(=O)N[C@@H]43)cc2Cl)cccc1-c1ccccc1 (stereo partly specified) | 85.2% | 104% | IC50 [6]: 5.6 nM
5 | Cc1c(COc2cc(OCc3cccc(C#N)c3)c(CN3CCCCC3C(=O)NC3CCN(C(=O)CCCC[C@H]4SC[C@H]5NC(=O)N[C@H]54)CC3)cc2Cl)cccc1-c1ccc2c(c1)OCCO2 (stereo partly specified) | 11.2% | 84.7% | –
6 | Cc1c(COc2cc(OCc3cccc(C#N)c3)c(CN3CCCCC3C(=O)N3CCN(C(=O)CCCC[C@@H]4SC[C@@H]5NC(=O)N[C@@H]54)CC3)cc2Cl)cccc1-c1ccc2c(c1)OCCO2 (stereo partly specified) | 17.3% | 80.9% | –
7 | Cc1c(COc2cc(OCc3cccc(C#N)c3)c(CNC(C)(C)C(=O)NC3CCN(C(=O)CCCC[C@H]4SC[C@H]5NC(=O)N[C@H]54)CC3)cc2Cl)cccc1-c1ccccc1 | 5.9% | 74.6% | –
8 | Cc1c(COc2cc(OCc3cccc(C#N)c3)c(CN3CCCCC3C(=O)N3CCC(NC(=O)CCCC[C@H]4SC[C@H]5NC(=O)N[C@H]54)CC3)cc2Cl)cccc1-c1ccc2c(c1)OCCO2 (stereo partly specified) | 13.4% | 90.6% | –
9 | Cc1c(COc2cc(OCc3cccc(C#N)c3)c(CNC(C)(C)C(=O)N3CCN(C(=O)CCCC[C@H]4SC[C@H]5NC(=O)N[C@H]54)CC3)cc2Cl)cccc1-c1ccc2c(c1)OCCO2 | 9.1% | 59.3% | –
10 | Cc1c(COc2cc(OCc3cccc(C#N)c3)c(CNC(C)(C)C(=O)N3CCC(NC(=O)CCCC[C@H]4SC[C@H]5NC(=O)N[C@H]54)CC3)cc2Cl)cccc1-c1ccc2c(c1)OCCO2 | -7.5% | 42.6% | –
11 | Cc1c(COc2cc(OCc3cccc(C#N)c3)c(CNC(C)(C)C(=O)NCCCNC(=O)CCCC[C@@H]3SC[C@@H]4NC(=O)N[C@@H]43)cc2Cl)cccc1-c1ccccc1 | 10.4% | 81.5% | –
12 | Cc1c(COc2cc(OCc3cccc(C#N)c3)c(CNC(C)(C)C(=O)NCCNC(=O)CCCC[C@@H]3SC[C@@H]4NC(=O)N[C@@H]43)cc2Cl)cccc1-c1ccccc1 | 21.3% | 79.2% | –
13 | Cc1c(COc2cc(OCc3cccc(C#N)c3)c(CN3CCCCC3C(=O)NCCN)cc2Cl)cccc1-c1ccccc1 (stereo unspecified) | – | – | Activity (HepG2): 31%; EC50 [7]: 4.65 µM; AUCt [8]: 1800 ng·h/mL; AUC [9]: 1830 ng·h/mL; MRT last at 48 h [10]: 1.8 h; MRT inf [11]: 2.3 h; half-life [12]: 384 min; Tmax [13]: 4.98 min; clearance [14]: 8.33 mL/min/kg; Vd [15]: 5.3 L/kg; C0 at 48 h [16]: 2630 ng/mL; inhibition in vivo at 50 mg/kg (B16-F10 [17]): 44.3%; Activity (B16-F10 [18]): 8.45%; Activity [19]: Toxic; Activity [20]: Toxic
14 | Cc1c(COc2cc(OCc3cccc(C#N)c3)c(CN3CCCCC3C(=O)NCCNC(=O)CCCC[C@H]3SC[C@H]4NC(=O)N[C@H]43)cc2Cl)cccc1-c1ccc2c(c1)OCCO2 (stereo partly specified) | 26.8% | 88.5% | –
15 | Cc1c(COc2cc(OCc3cccc(C#N)c3)c(CNC(C)(C)C(=O)NCCNC(=O)CCCC[C@H]3SC[C@H]4NC(=O)N[C@H]43)cc2Cl)cccc1-c1ccc2c(c1)OCCO2 | -4% | 66.9% | –
16 | Cc1c(COc2cc(OCc3cccc(C#N)c3)c(CN3CCCCC3C(=O)N(C)CCNC(=O)CCCC[C@@H]3SC[C@@H]4NC(=O)N[C@@H]43)cc2Cl)cccc1-c1ccccc1 (stereo partly specified) | 34.9% | 104% | IC50 [6]: 10.8 nM
17 | Cc1c(COc2cc(OCc3cccc(C#N)c3)c(CNC(C)(C)C(=O)N3CCC(NC(=O)CCCC[C@@H]4SC[C@@H]5NC(=O)N[C@@H]54)CC3)cc2Cl)cccc1-c1ccccc1 | 6.8% | 64.1% | –
18 | Cc1c(COc2cc(OCc3cccc(C#N)c3)c(CN3CCCCC3C(=O)N3CCC(NC(=O)CCCC[C@@H]4SC[C@@H]5NC(=O)N[C@@H]54)CC3)cc2Cl)cccc1-c1ccccc1 (stereo partly specified) | 100% | 97.2% | IC50 [6]: 4 nM
19 | Cc1c(COc2cc(OCc3cccc(C#N)c3)c(CNC(C)(C)C(=O)N3CCN(C(=O)CCCC[C@@H]4SC[C@@H]5NC(=O)N[C@@H]54)CC3)cc2Cl)cccc1-c1ccccc1 | 11.2% | 68.1% | –
20 | Cc1c(COc2cc(OCc3cccc(C#N)c3)c(CN3CCCCC3C(=O)N3CCN(C(=O)CCCC[C@@H]4SC[C@@H]5NC(=O)N[C@@H]54)CC3)cc2Cl)cccc1-c1ccccc1 (stereo partly specified) | 93.1% | 102% | IC50 [6]: 3.4 nM
21 | Cc1c(COc2cc(OCc3cccc(C#N)c3)c(CN3CCCCC3C(=O)N(C)CCNC(=O)CCCC[C@@H]3SC[C@@H]4NC(=O)N[C@@H]43)cc2Cl)cccc1-c1ccc2c(c1)OCCO2 (stereo partly specified) | 20.1% | 82.6% | –
